Measured values as given in patent US20250388544A1, “HETEROAROMATIC INHIBITORS OF ASTACIN PROTEINASES” (VIVORYON THERAPEUTICS N.V., priority 2019, published 2025).

Legend:
hMeprin β = target: T1, hMeprin β (Homo sapiens, UniProt Q16820); experiment: Enzymatic assay, quenched peptide substrate cleavage, method B; type: biochemical; conditions: geometric mean (geometric SD factor in parentheses); for Ki: Morrison's equation, read-out: Meprin beta Ki(app); for IC50: read-out: Meprin beta IC50
T1 sequence (Q16820 62-701): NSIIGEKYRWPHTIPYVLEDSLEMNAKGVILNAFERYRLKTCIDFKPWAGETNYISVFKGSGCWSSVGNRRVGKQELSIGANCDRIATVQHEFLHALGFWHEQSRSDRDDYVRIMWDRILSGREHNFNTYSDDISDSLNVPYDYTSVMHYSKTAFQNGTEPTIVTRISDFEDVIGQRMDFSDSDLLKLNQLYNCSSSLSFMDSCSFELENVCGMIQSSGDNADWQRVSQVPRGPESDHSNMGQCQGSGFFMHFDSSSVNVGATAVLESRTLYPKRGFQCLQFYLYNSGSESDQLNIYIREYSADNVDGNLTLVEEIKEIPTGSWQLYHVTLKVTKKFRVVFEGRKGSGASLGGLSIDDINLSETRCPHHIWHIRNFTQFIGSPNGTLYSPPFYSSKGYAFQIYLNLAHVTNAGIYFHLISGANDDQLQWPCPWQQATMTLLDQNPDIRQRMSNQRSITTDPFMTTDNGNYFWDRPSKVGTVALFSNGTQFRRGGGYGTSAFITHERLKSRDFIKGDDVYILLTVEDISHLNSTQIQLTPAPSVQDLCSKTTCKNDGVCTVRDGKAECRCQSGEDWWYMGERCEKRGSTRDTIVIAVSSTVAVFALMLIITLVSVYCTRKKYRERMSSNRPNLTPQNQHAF
Experimental: (§1) The determination of enzymatic activity was based on the cleavage of internally quenched peptide substrates. A typical assay of 250 μl total volume measured in black 96 well plates consisted of 100 μl buffer, 50 μl enzyme at a final concentration of 5e-8 M to 2e-10 M, 50 μl substrate (0.15 to 80 μM, in buffer, 0.5% DMSO) and 50 μl inhibitor solution (in buffer, 1% DMSO). In case of 125 μl assay volume (black 96 half area well plates) all volumes were cut in half. Enzymatic activity of ADAMs was measured in 384 well plates with 60 μl total assay volume consisting of 20 μl inhibitor, 20 μl buffer, 10 μl enzyme and 10 μl substrate.
(§2) Based on method B Ki^(app) values were determined using Morrison's equation. All measurements were performed using a fluorescence plate reader (FLUOSTAR OPTIMA, BMG Labtech) at 30° C. The kinetic parameters were determined at least in duplicates on separate days. The excitation/emission wavelength was 340/420 nm. The kinetic data was evaluated using GRAFIT software (version 7.0.3, Erithacus Software).

hMeprin α = target: T2, hMeprin α (Homo sapiens, UniProt Q16819); experiment: as above; type: biochemical; conditions: geometric mean (geometric SD factor in parentheses); for Ki: Morrison's equation, read-out: Meprin alpha Ki(app); for IC50: read-out: Meprin alpha IC50
T2 sequence (Q16819 66-746): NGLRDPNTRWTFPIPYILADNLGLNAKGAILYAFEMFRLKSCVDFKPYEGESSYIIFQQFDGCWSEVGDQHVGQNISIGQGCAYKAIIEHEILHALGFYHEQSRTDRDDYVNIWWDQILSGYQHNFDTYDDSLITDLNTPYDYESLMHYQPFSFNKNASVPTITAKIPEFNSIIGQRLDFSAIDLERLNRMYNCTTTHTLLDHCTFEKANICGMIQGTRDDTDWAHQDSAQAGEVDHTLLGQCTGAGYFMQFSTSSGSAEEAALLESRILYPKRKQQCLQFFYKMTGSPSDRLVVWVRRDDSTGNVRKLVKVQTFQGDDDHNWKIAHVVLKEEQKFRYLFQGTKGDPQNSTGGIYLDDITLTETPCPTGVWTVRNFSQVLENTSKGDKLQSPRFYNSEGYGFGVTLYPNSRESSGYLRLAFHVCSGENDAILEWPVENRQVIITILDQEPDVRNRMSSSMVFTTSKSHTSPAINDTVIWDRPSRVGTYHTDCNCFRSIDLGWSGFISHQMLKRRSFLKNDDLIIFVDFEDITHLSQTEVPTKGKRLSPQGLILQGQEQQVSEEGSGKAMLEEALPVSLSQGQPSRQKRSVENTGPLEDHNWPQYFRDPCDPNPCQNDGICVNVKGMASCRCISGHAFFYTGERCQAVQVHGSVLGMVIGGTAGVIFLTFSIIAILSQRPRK
Experimental: as §1, §2

Ki (hMeprin β)	IC50 (hMeprin β)	Ki (hMeprin α)	IC50 (hMeprin α)	Compound
2530 nM	2600 nM	61 nM	62 nM	O=C(NO)C1Cc2ccccc2-c2[nH]nc(-c3ccccc3)c21 (centres unmarked) [Example 68, 3-Phenyl-4,5-dihydro-1H-benzo[g]indazole-4-carbohydroxamic acid]
11 nM	12 nM	10 nM	10 nM	O=C(Cc1c(-c2ccc(C(=O)O)cc2)n[nH]c1-c1ccc(Cl)c(O)c1F)NO [Example 65, 4-[5-(4-Chloro-2-fluoro-3-hydroxy-phenyl)-4-[2-(hydroxyamino)-2-oxo-ethyl]-1H-pyrazol-3-yl]benzoic acid]
119 nM	127 nM	71 nM	75 nM	O=C(Cn1c(-c2ccc(C(=O)O)cc2)nc2ccccc21)NO [Example 19, 4-[1-[2-(Hydroxyamino)-2-oxo-ethyl]benzimidazol-2-yl]benzoic acid]
1160 nM	1190 nM	903 nM	908 nM	O=C(Cn1c(-c2ccc(Cl)c(O)c2F)nc2c(C(=O)O)cccc21)NO [Example 20, 2-(4-Chloro-2-fluoro-3-hydroxy-phenyl)-1-[2-(hydroxyamino)-2-oxo-ethyl]benzimidazole-4-carboxylic acid]
252 nM	257 nM	94 nM	95 nM	COc1ccc(-c2nc3ccccc3n2CC(=O)NO)cc1 [Example 15, 2-[2-(4-Methoxyphenyl)benzimidazol-1-yl]ethanehydroxamic acid]
0.24 nM	0.26 nM	0.14 nM	0.24 nM	O=C(Cc1c(-c2cccc(C(=O)O)c2)n[nH]c1-c1cc(F)c(O)c(Cl)c1)NO [Example 64, 3-[5-(3-Chloro-5-fluoro-4-hydroxy-phenyl)-4-[2-(hydroxyamino)-2-oxo-ethyl]-1H-pyrazol-3-yl]benzoic acid]
119 nM	125 nM	435 nM	443 nM	O=C(Cn1c(-c2ccc(Cl)c(O)c2F)nc2cc(C(=O)O)ccc21)NO [Example 21, 2-(4-Chloro-2-fluoro-3-hydroxy-phenyl)-1-[2-(hydroxyamino)-2-oxo-ethyl]benzimidazole-5-carboxylic acid]
7 nM	8 nM	6 nM	6 nM	O=C(Cn1c(-c2ccc(Cl)c(O)c2F)nc2ccc(C(=O)O)cc21)NO [Example 22, 2-(4-Chloro-2-fluoro-3-hydroxy-phenyl)-3-[2-(hydroxyamino)-2-oxo-ethyl]benzimidazole-5-carboxylic acid]
1680 nM	1790 nM	39 nM	40 nM	O=C(NO)C1c2ccccc2-c2[nH]nc(-c3ccccc3)c21 (centres unmarked) [Example 67, 3-Phenyl-1,4-dihydroindeno[1,2-c]pyrazole-4-carbohydroxamic acid]
15 nM	15 nM	23 nM	24 nM	O=C(Cc1c(-c2cccc(C(=O)O)c2)[nH]nc1[C@H]1CC[C@@H](C(=O)O)CC1)NO [Example 77, cis-3-[3-(4-carboxycyclohexyl)-4-[2-(hydroxyamino)-2-oxo-ethyl]-1H-pyrazol-5-yl]benzoic acid]
32 nM	32 nM	20 nM	21 nM	O=C(Cc1c(-c2ccc(C(=O)O)cc2)n[nH]c1-c1cccc(C(=O)O)c1)NO [Example 66, 3-[3-(4-Carboxyphenyl)-4-[2-(hydroxyamino)-2-oxo-ethyl]-1H-pyrazol-5-yl]benzoic acid]
13200 nM	13700 nM	1390 nM	1430 nM	O=C(Cn1c(-c2ccccc2C(=O)O)nc2ccccc21)NO [Example 17, 2-[1-[2-(Hydroxyamino)-2-oxo-ethyl]benzimidazol-2-yl]benzoic acid]

Compound	Ki (hMeprin β)	IC50 (hMeprin β)	Ki (hMeprin α)	IC50 (hMeprin α)
O=C(Cc1c(C2CCCC2)n[nH]c1-c1ccccc1)NO [Example 45, 2-(3-Cyclopentyl-5-phenyl-1H-pyrazol-4-yl)ethanehydroxamic acid]	320 nM	327 nM	6 nM	6 nM
O=C(CCc1c(-c2ccccc2)nn(Cc2ccc(Cl)c(O)c2F)c1-c1ccccc1)NO [Example 72, 3-[1-[(4-chloro-2-fluoro-3-hydroxy-phenyl)methyl]-3,5-diphenyl-pyrazol-4-yl]propanehydroxamic acid]	1180 nM	1210 nM	0.15 nM	0.22 nM
Cc1n[nH]c(-c2ccccc2)c1CC(=O)NO [Example 44, 2-(3-Methyl-5-phenyl-1H-pyrazol-4-yl)ethanehydroxamic acid]	2110 nM	2170 nM	302 nM	310 nM
O=C(Cc1c(-c2ccc(C(=O)O)cc2)n[nH]c1-c1ccccc1)NO [Example 52, 4-[4-[2-(Hydroxyamino)-2-oxo-ethyl]-5-phenyl-1H-pyrazol-3-yl]benzoic acid]	116 nM	130 nM	17 nM	18 nM
O=C(Cc1c(-c2cccc(C(=O)O)c2)n[nH]c1-c1ccccc1)NO [Example 51, 3-[4-[2-(Hydroxyamino)-2-oxo-ethyl]-5-phenyl-1H-pyrazol-3-yl]benzoic acid]	47 nM	52 nM	8 nM	8 nM
O=C(Cc1c(Cc2ccccc2)n[nH]c1-c1ccccc1)NO [Example 46, 2-(3-Benzyl-5-phenyl-1H-pyrazol-4-yl)ethanehydroxamic acid]	1730 nM	1780 nM	70 nM	71 nM
O=C(Cc1c(-c2cccc(C(=O)O)c2)n[nH]c1-c1cccc(C(=O)O)c1)NO [Example 58, 3-[3-(3-Carboxyphenyl)-4-[2-(hydroxyamino)-2-oxo-ethyl]-1H-pyrazol-5-yl]benzoic acid]	14 nM	17 nM	10 nM	11 nM
O=C(Cc1c(-c2ccc3c(c2)OCO3)n[nH]c1-c1cccc(C(=O)O)c1)NO [Example 61, 3-[3-(1,3-Benzodioxol-5-yl)-4-[2-(hydroxyamino)-2-oxo-ethyl]-1H-pyrazol-5-yl)benzoic acid]	44 nM	45 nM	3 nM	3 nM
O=C(Cc1c(-c2ccc(Cl)c(O)c2F)n[nH]c1-c1ccccc1)NO [Example 53, 2-[3-(4-Chloro-2-fluoro-3-hydroxy-phenyl)-5-phenyl-1H-pyrazol-4-yl]ethanehydroxamic acid]	61 nM	61 nM	2 nM	3 nM
O=C(Cc1c(C2CCCC(C(=O)O)C2)n[nH]c1-c1ccccc1)NO (centres unmarked) [Example 74, 3-[4-[2-(Hydroxyamino)-2-oxo-ethyl]-5-phenyl-1H-pyrazol-3-yl]cyclohexanecarboxylic acid]	55 nM	55 nM	1 nM	1 nM
O=C(Cc1c(-c2ccccc2)[nH]nc1[C@H]1CC[C@H](C(=O)O)CC1)NO [Example 76, trans-4-[4-[2-(Hydroxyamino)-2-oxo-ethyl]-5-phenyl-1H-pyrazol-3-yl]cyclohexanecarboxylic acid]	98 nM	98 nM	12 nM	12 nM
